Measurements taken from patent US4570005A, “Process for the preparation of 2-arylpropyl ether or thioether derivatives” (priority 1980, dated 1986).

How the values were obtained:
plants of Solanacede = conditions: Fenvalerate; general statement; cited from earlier work
male mice = assay: Test 9: Toxicity Test (acute oral toxicity, mice); conditions: oral; corn oil; male mice; 7 days
Description: (§1) A predetermined amount of a solution or suspension of a test compound in corn oil was orally administered to male mice having a body weight of 19 to 23 g (0.2 ml per 10 g of the body weight). After 7 days, the number of killed mice was counted and the influences on the mice were examined.

two-spotted spider mite = assay: Test 6: Effect on Two-Spotted Spider mite Adults; type: in vivo; conditions: 100 ppm, adults, 24 hours, 25° C; for mortality at 100 ppm: Tetranychus urticae, read-out: Mortality (%)
Description: To a mixture of 20 parts of the compound of the present invention and 20 parts of Sorpol SM-200 (registered tradename for the product supplied by Toho Chemical Industrial Co., Ltd.) was added 60 parts of xylol, and the mixture was suffciently blended. The obtained emulsifiable concentrate was diluted at a predetermined concentration with distilled water, and the obtained dilution was used.
A kidney bean leaf disc perforated with a cork borer (15 mm in diameter) was placed on water-impregnated absorbent cotton (2 cm×2 cm), and 10 adults of two-spotted spider mite were set free. A chemical dilution having a concentration of 100 ppm was applied with an applicator in an amount of 3 ml.
The leaf disc-placed absorbent cotton was placed in a thermostat chamber maintained at 25° C. After 24 hours, the number of killed adults was counted and the mortality was calculated. The test was made on three leaf discs and the average value was calculated.

tobacco cutworm [1] = assay: Test 1: Effect on Tobacco Cutworm (leaf immersion), mortality after 24 hours; type: in vivo; conditions: second-instar larvae, 25° C
Method in brief: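 Sweet-potato leaves dipped 10 s in emulsifiable concentrate diluted to 100 or 20 ppm, air-dried, then exposed to second-instar larvae at 25 °C. Mortality counted after 24 h, averaged over three cups.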

[2] = tested on: resistant green rice leafhopper (collected at Nakagawara); assay: Test 3: Effect on Resistant Green Rice Leafhopper (collected at Nakagawara); type: in vivo, Nephotettix cincticeps Uhler (Green rice leafhopper); conditions: Nephotettix cincticeps, 24 h, read-out: Mortality (%), Green Rice Leafhopper Collected at Nakagawara
Method in brief: (§2)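 Emulsifiable concentrate diluted to 100 or 20 ppm was sprayed, 3 ml per pot, onto hydroponic rice seedlings at 2–3 leaves. After air-drying, 10 female adults of the Nakagawara (resistant) or Chigasaki (sensitive) strain were released per caged pot. Mortality was counted at 24 h and averaged over three pots.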

green peach aphid = assay: Test 5: Effect on Green Peach Aphid; type: in vivo; conditions: Myzus persicae; 100 ppm; mortality class; 24 hours; read-out: Insecticidal Activity
Method in brief: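 Eggplant seedlings with 3–4 leaves were infested with aphids and sprayed with a 100 ppm aqueous dilution of an emulsifiable concentrate, then kept in a glasshouse. Living insects were counted after 24 h. Mortality is averaged over three pots and graded A (>95%), B (80–95%), C (50–80%) or D (<50%).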

tobacco cutworm [3] = assay: Test 2: Tobacco Cutworm Larva Dipping Test, mortality after 24 hours; type: in vivo; conditions: 24 hours
Method in brief: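 Second- and fifth-instar larvae dipped 5 s in a water dilution of an emulsifiable concentrate at 100 or 20 ppm, blotted, then held on artificial diet at 25° C. Dead and living larvae counted after 24 hours; mortality averaged over three cups.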

[4] = tested on: sensitive green rice leafhopper (collected at Chigasaki); assay: whole plant or invertebrate; type: in vivo; conditions: Nephotettix cincticeps, sensitive female adults, 24 hours, read-out: Mortality (%), Green Rice Leafhopper Collected at Chigasaki
Method in brief: as §2

diamond back moth = assay: Test 4: Effect on Diamond Back Moth; type: in vivo; conditions: Plutella, third-instar larvae, 24 hours, read-out: Mortality (%)
Method in brief: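 Compound formulated as an emulsifiable concentrate, diluted in water to 100 or 20 ppm and sprayed at 3 ml per cup onto cabbage leaves holding 10 third-instar larvae. Mortality counted after 24 hours; mean of three cups.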

[5] = Test 9: Toxicity Test (acute oral toxicity, mice); conditions: mouse, in vivo, po
Description: as §1

Test 8: Fish Toxicity = type: in vivo; conditions: carp, water; concentration at which 1/2 of the test fishes were killed within 48 hours; read-out: Fish Toxicity, TLm48
Description: A water tank having a width of 60 cm, a length of 30 cm and a height of 40 cm was filled with water, and 10 yearling carps having a body length of about 5 cm were set free in the tank and adapted to the environment in the tank. A test compound was applied so that the concentration in water was 10, 1 or 0.1 ppm. After 48 hours, the numbers of killed and living carps were counted and the influences on the fishes were examined.

German cockroach = assay: Test 7: Effect on German Cockroach; type: in vivo; conditions: Blattella germanica, male adults, agonized and killed after 24 hours, read-out: Mortality (%); for mortality at 10 mg/m2: 10 mg/m^2; for mortality at 50 mg/m2: 50 mg/m^2
Method in brief: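 Petri dish floors were treated with 50 or 10 mg/m2 of compound (diluted emulsifiable concentrate) and air-dried. Ten male adult German cockroaches per dish were held at 25° C. Agonized and dead insects were counted after 24 hours, averaging two dishes.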

[6] = fifth-instar larvae, read-out: Motality (%), Fifth-Instar Larvae
[7] = second-instar larvae, read-out: Motality (%), Second-Instar Larvae

Molecule | mortality at 20 ppm (tobacco cutworm [1]) [%] | mortality at 100 ppm (tobacco cutworm [1]) [%] | mortality at 20 ppm [2] [%] | mortality at 100 ppm [2] [%] | mortality at 100 ppm (green peach aphid) [%] | mortality at 20 ppm (tobacco cutworm [3]; [6]) [%] | mortality at 20 ppm (tobacco cutworm [3]; [7]) [%] | mortality at 100 ppm (tobacco cutworm [3]; [6]) [%] | mortality at 100 ppm (tobacco cutworm [3]; [7]) [%] | mortality at 20 ppm [4] [%] | mortality at 100 ppm [4] [%] | mortality at 20 ppm (diamond back moth) [%] | mortality at 100 ppm (diamond back moth) [%] | LD50 at 168 h [5] [mg/kg] | LC50 at 48 h (Test 8: Fish Toxicity) [µg/mL] | mortality at 100 ppm (two-spotted spider mite) [%] | mortality at 10 mg/m2 (German cockroach) [%] | mortality at 50 mg/m2 (German cockroach) [%] | further results
CC(C)C(C(=O)OC(C#N)c1cccc(Oc2ccccc2)c1)c1ccc(Cl)cc1 (stereo not drawn) [Fenvalerate] |  |  |  |  |  |  |  |  |  |  |  |  |  |  |  |  |  |  | phyto-toxicity to plants of Solanacede (plants of Solanacede): observed
Pyrethrin [Comparative Compound (c), reference compound] |  |  |  |  |  |  |  |  |  |  |  |  |  |  |  |  |  |  | Acute Toxicity at Oral Administration, LD-50 (male mice): 340 mg/kg; Mortality (%) (two-spotted spider mite): 0%
CC(C)(COCc1cccc(Oc2ccccc2)c1)c1ccc2c(c1)OCO2 [Compound 7, 3-Phenoxybenzyl 2-(3,4-methylenedioxyphenyl)-2-methylpropyl ether] | 80 | 100 | 100 | 100 | > 95 | 50 | 60 | 100 | 100 | 90 | 100 | 80 | 100 | > 500 | > 10 | 100 | 100 | 100 | 
CC(C)(COCc1cccc(Oc2ccc(F)cc2)c1)c1ccc(Cl)cc1 [Compound 6, 3-(4-Fluorophenoxy)benzyl 2-(4-chlorophenyl)-2-methylpropyl ether] | 100 | 100 | 100 | 100 | > 95 | 100 | 100 | 100 | 100 | 100 | 100 | 100 | 100 | > 500 | > 10 | 100 | 100 | 100 | 
CC(C)(COCc1cccc(Oc2ccccc2)c1)c1ccc(Cl)c(Cl)c1 [Compound 48, 3-Phenoxybenzyl 2-(3,4-dichlorophenyl)-2-methylpropyl ether] | 80 | 100 | 100 | 100 | > 95 | 60 | 70 | 70 | 90 | 100 | 100 | 100 | 100 | > 500 | > 10 | 100 | 100 | 100 | 
